From article PMC9025901, “New Genetic Bomb Trigger: Design, Synthesis, Molecular Dynamics Simulation, and Biological Evaluation of Novel BIBR1532-Related Analogs Targeting Telomerase against Non-Small Cell Lung Cancer” (Pharmaceuticals, 2022)

Experiments:
[1] = target: T1, telomerase inside living cancer cells A549 (Homo sapiens, UniProt O14746); assay: Living-cell TRAP assay, A549; assay type: cell-based; settings: percent of control cells, 10 µM, 48 h
T1 construct: host or cells: A549
Method: The Telomeric Repeat Amplification Protocol (TRAP) [61] was used to evaluate the activity of telomerase, with some changes that we have previously described [62, 63]. A549 cells (human epithelial cell lung carcinoma, ATCC, Manassas, VA) were lysed in (10 mM) Tris-HCl, pH 7.5, (1 mM) EGTA, (1 mM) MgCl2, (5 mM) 2-mercaptoethanol, (0.1 mM) PMSF, (0.5%) CHAPS, and (10%) glycerol (Sigma-Aldrich, St. Louis, MO, USA) and centrifugation. The supernatants were kept at -80 °C. The BCA-1 Protein Assay Kit was used to assess the protein concentration in cell extracts (Sigma-Aldrich, St. Louis, MO, USA). […] To inactivate telomerase, the cells were elongated for 30 min at 37 °C and 10 min at 96 °C. Copy CX-primer was added to the elongation mixture along with 0.1 μL ([NT]) and 2.5 units Taq-polymerase, followed by the following PCR: 94 °C for 5 min; 30 cycles of 94 °C for 30 s, 50 °C for 30 s, and 72 °C for 40 s, and 72 °C for 5 min. TBE buffer and (12%) nondenaturing PAAG electrophoresis were used to visualize the PCR product. 10 μL of each sample was placed in each well of gel comb. The gels were stained with the SYBR Green I (Invitrogen, Grand Island, NY, USA), then photographed under the UV light in ChemiDocTM XRS imaging system and analyzed with GelAnalyzer 2010.

[2] = system: CCRF-CEM; assay: NCI-60 in vitro anticancer screening (SRB); settings: Leukemia, 10 µM, 48 h
Method: (§1) The cancer screening panel’s human tumor 60 cell lines were cultured in the RPMI 1640 medium with (5%) fetal bovine serum and (2 mM) L-glutamine. For a screening experiment, cells were injected onto 96-well microtiter plates (100 µL), with plating densities varying from 5 to 40 × 10^3 cells per well, depending on different cell lines’ doubling times. Before introducing experimental drugs, the microtiter plates were incubated overnight at 37 °C, 95% air, 5% CO2, and 100% relative humidity after cell injection. TCA was employed to keep each cell line in place overnight, resembling a computation of the cell population for every cell line at the time of the addition of the drug. The experimental drugs were chilled after solubilization in DMSO at 400 times the final maximum test concentration. At the moment of the addition of the drug, the aliquot of the frozen concentrate was thawed and diluted to twice the required final maximum concentration with the complete medium containing (50 µg/mL) gentamicin. The required final concentration of the drug (10 µM) was reached by adding 100 µL aliquots of these definite dilutions of the drug to suitable microtiter wells previously holding a medium of 100 µL. […] The bound dye was then solubilized with a (10 mM) trizma base, and absorbance was calculated at 515 nm on an automatic reader. […]

[3] = system: MOLT-4; assay: NCI-60 in vitro anticancer screening (SRB); settings: MOLT-4, Leukemia; 10 µM, 48 h
Method: (§2) The cancer screening panel’s human tumor 60 cell lines were cultured in the RPMI 1640 medium with (5%) fetal bovine serum and (2 mM) L-glutamine. For a screening experiment, cells were injected onto 96-well microtiter plates (100 µL), with plating densities varying from 5 to 40 × 10^3 cells per well, depending on different cell lines’ doubling times. Before introducing experimental drugs, the microtiter plates were incubated overnight at 37 °C, 95% air, 5% CO2, and 100% relative humidity after cell injection. TCA was employed to keep each cell line in place overnight, resembling a computation of the cell population for every cell line at the time of the addition of the drug. The experimental drugs were chilled after solubilization in DMSO at 400 times the final maximum test concentration. At the moment of the addition of the drug, the aliquot of the frozen concentrate was thawed and diluted to twice the required final maximum concentration with the complete medium containing (50 µg/mL) gentamicin. […] The bound dye was then solubilized with a (10 mM) trizma base, and absorbance was calculated at 515 nm on an automatic reader. […] The % growth of treated cells was established using seven absorbance measurements and compared to untreated control cells [57].

[4] = system: A549/ATCC; assay: NCI-60 in vitro anticancer screening (SRB); settings: Lung cancer (NSCLC), 10 µM, 48 h
Method: as §2

[5] = system: EKVX; assay: NCI-60 in vitro anticancer screening (SRB); settings: Lung cancer (NSCLC), 10 µM, 48 h
Method: as §2

[6] = system: NCI-H226; assay: NCI-60 in vitro anticancer screening (SRB); settings: NCI-H226, Lung cancer (NSCLC); 10 µM, 48 h
Method: as §2

[7] = system: NCI-H23; assay: NCI-60 in vitro anticancer screening (SRB); settings: NCI-H23, Lung cancer (NSCLC); 10 µM, 48 h
Method: as §2

[8] = system: NCI-H522; assay: NCI-60 in vitro anticancer screening (SRB); settings: NCI-H522, Lung cancer (NSCLC); 10 µM, 48 h
Method: as §2

[9] = system: COLO 205; assay: NCI-60 in vitro anticancer screening (SRB); settings: COLO 205, Colon cancer; 10 µM, 48 h
Method: as §2

[10] = system: HCC-2998; assay: NCI-60 in vitro anticancer screening (SRB); settings: HCC-2998, Colon cancer; 10 µM, 48 h
Method: as §2

[11] = system: HCT-15; assay: NCI-60 in vitro anticancer screening (SRB); settings: HCT-15, Colon cancer; 10 µM, 48 h
Method: as §2

[12] = system: KM12; assay: NCI-60 in vitro anticancer screening (SRB); settings: KM12, Colon cancer; 10 µM, 48 h
Method: as §2

[13] = system: SF-268; assay: NCI-60 in vitro anticancer screening (SRB); settings: SF-268, CNS cancer; 10 µM, 48 h
Method: as §2

[14] = system: SF-539; assay: NCI-60 in vitro anticancer screening (SRB); settings: SF-539, CNS cancer; 10 µM, 48 h
Method: as §2

[15] = system: SNB-19; assay: NCI-60 in vitro anticancer screening (SRB); settings: SNB-19, CNS cancer; 10 µM, 48 h
Method: as §2

[16] = system: SNB-75; assay: NCI-60 in vitro anticancer screening (SRB); settings: SNB-75, CNS cancer; 10 µM, 48 h
Method: as §2

[17] = system: MALME-3M; assay: NCI-60 in vitro anticancer screening (SRB); settings: Melanoma, 10 µM, 48 h
Method: as §2

[18] = system: M14; assay: NCI-60 in vitro anticancer screening (SRB); settings: M14, Melanoma; 10 µM, 48 h
Method: as §1

[19] = system: MDA-MB-435; assay: NCI-60 in vitro anticancer screening (SRB); settings: MDA-MB-435, Melanoma; 10 µM, 48 h
Method: as §1

[20] = system: SK-MEL-2; assay: NCI-60 in vitro anticancer screening (SRB); settings: SK-MEL-2, Melanoma; 10 µM, 48 h
Method: as §1

[21] = system: UACC-62; assay: NCI-60 in vitro anticancer screening (SRB); settings: UACC-62, Melanoma; 10 µM, 48 h
Method: as §2

[22] = system: OVCAR-4; assay: NCI-60 in vitro anticancer screening (SRB); settings: OVCAR-4, Ovarian cancer; 10 µM, 48 h
Method: as §2

[23] = system: OVCAR-8; assay: NCI-60 in vitro anticancer screening (SRB); settings: OVCAR-8, Ovarian cancer; 10 µM, 48 h
Method: as §2

[24] = system: NCI/ADR-RES; assay: NCI-60 in vitro anticancer screening (SRB); settings: Ovarian cancer, 10 µM, 48 h
Method: as §2

[25] = system: SK-OV-3; assay: NCI-60 in vitro anticancer screening (SRB); settings: SK-OV-3, Ovarian cancer; 10 µM, 48 h
Method: as §2

[26] = system: A498; assay: NCI-60 in vitro anticancer screening (SRB); settings: A498, Renal cancer; 10 µM, 48 h
Method: as §1

[27] = system: CAKI-1; assay: NCI-60 in vitro anticancer screening (SRB); settings: CAKI-1, Renal cancer; 10 µM, 48 h
Method: as §1

[28] = system: SN12C; assay: NCI-60 in vitro anticancer screening (SRB); settings: Renal cancer, 10 µM, 48 h
Method: as §2

[29] = system: UO-31; assay: NCI-60 in vitro anticancer screening (SRB); settings: UO-31, Renal cancer; 10 µM, 48 h
Method: as §2

[30] = system: PC-3; assay: NCI-60 in vitro anticancer screening (SRB); settings: PC-3, Prostate cancer; 10 µM, 48 h
Method: as §2

[31] = system: MDA-MB-231/ATCC; assay: NCI-60 in vitro anticancer screening (SRB); settings: Breast cancer, 10 µM, 48 h
Method: as §1

[32] = system: BT-549; assay: NCI-60 in vitro anticancer screening (SRB); settings: BT-549, Breast cancer; 10 µM, 48 h
Method: as §1

[33] = system: MDA-MB-468; assay: NCI-60 in vitro anticancer screening (SRB); settings: MDA-MB-468, Breast cancer; 10 µM, 48 h
Method: as §2

T1 sequence (O14746 whole entry): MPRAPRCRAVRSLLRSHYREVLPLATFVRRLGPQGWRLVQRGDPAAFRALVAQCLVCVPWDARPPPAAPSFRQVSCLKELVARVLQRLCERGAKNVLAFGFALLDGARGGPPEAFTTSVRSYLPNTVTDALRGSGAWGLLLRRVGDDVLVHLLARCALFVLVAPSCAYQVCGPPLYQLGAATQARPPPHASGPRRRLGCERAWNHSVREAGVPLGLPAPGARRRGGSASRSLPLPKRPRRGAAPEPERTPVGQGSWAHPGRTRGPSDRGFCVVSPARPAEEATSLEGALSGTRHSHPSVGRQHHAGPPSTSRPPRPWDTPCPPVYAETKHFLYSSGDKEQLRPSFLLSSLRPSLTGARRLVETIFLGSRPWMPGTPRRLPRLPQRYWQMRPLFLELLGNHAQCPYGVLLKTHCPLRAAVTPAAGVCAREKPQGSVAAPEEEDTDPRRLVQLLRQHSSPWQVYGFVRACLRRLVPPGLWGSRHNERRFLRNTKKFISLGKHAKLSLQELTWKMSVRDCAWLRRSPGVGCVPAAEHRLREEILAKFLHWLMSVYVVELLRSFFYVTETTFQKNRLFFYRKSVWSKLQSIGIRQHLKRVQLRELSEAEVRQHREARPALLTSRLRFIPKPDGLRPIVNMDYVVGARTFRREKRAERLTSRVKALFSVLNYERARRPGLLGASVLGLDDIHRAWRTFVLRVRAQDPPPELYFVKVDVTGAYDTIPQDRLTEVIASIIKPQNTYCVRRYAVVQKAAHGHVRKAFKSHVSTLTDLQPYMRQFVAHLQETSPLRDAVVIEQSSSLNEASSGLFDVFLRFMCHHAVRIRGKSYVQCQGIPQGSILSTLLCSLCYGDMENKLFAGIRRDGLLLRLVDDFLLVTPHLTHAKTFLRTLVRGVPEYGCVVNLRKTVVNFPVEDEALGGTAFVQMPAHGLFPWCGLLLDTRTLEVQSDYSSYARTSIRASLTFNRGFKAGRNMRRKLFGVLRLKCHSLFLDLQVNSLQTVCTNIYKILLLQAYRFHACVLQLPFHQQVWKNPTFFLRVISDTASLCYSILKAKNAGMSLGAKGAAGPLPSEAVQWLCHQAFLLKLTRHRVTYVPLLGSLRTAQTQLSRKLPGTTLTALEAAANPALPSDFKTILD
T1 sequence (O60832 whole entry partner): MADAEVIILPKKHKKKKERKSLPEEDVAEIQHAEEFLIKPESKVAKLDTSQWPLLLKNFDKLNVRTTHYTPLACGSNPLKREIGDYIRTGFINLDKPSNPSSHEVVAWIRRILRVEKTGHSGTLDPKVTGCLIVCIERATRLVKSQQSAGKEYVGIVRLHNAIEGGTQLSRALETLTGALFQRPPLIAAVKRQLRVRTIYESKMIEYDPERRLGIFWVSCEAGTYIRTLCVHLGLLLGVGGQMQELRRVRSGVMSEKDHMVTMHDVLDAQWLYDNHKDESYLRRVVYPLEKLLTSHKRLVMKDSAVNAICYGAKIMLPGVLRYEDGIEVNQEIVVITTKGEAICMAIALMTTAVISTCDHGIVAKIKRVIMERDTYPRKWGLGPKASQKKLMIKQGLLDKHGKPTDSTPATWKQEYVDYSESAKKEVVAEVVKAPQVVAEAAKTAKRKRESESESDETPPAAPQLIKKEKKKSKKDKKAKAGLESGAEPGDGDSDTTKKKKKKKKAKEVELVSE
T1 sequence (Q9NX24 whole entry partner): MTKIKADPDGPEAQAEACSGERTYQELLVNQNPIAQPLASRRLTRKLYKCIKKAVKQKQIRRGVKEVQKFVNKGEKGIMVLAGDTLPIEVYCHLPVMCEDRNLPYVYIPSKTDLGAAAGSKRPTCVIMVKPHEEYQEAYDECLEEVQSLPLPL
T1 sequence (Q9NPE3 whole entry partner): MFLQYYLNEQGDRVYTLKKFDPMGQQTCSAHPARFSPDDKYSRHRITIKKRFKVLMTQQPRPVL
T1 sequence (Q9NY12 whole entry partner): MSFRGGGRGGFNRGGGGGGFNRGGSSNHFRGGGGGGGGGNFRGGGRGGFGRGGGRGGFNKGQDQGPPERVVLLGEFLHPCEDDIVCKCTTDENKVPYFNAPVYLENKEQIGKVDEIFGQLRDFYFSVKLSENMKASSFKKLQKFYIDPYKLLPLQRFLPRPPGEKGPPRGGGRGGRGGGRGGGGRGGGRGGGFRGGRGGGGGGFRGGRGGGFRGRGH
T1 sequence (Q9BUR4 whole entry partner): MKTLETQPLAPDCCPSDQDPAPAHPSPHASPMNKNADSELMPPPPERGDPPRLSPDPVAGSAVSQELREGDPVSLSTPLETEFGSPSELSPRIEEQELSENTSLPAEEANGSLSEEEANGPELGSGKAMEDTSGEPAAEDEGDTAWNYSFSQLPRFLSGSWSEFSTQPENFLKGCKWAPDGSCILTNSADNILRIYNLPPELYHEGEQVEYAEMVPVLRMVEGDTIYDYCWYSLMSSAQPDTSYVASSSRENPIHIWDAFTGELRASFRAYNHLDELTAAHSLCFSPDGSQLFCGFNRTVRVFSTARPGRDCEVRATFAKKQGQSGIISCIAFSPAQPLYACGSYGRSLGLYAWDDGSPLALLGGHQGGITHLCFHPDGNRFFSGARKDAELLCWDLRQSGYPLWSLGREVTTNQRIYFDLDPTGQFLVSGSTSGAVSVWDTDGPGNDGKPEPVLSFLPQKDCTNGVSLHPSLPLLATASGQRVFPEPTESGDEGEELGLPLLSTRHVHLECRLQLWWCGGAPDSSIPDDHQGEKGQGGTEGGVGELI

N#C/C(=C\c1ccc2ccccc2c1)C(=O)Nc1sc2c(c1C#N)CCCC2 [Compound 36b, (2E)-2-Cyano-N-(3-cyano-4,5,6,7-tetrahydro-1-benzothiophen-2-yl)-3-(naphthalen-2-yl)prop-2-enamide]
% Telomerase Activity in Cancer Cells [1]: 18.1 ± 5.4%
Growth Percent [2]: 104.69%
Growth Percent [3]: 100.37%
Growth Percent [4]: 100.18%
Growth Percent [5]: 92.47%
Growth Percent [6]: 89.78%
Growth Percent [7]: 94.56%
Growth Percent [8]: 94.31%
Growth Percent [9]: 103.10%
Growth Percent [10]: 114.98%
Growth Percent [11]: 99.95%
Growth Percent [12]: 101.43%
Growth Percent [13]: 104.45%
Growth Percent [14]: 98.71%
Growth Percent [15]: 100.30%
Growth Percent [16]: 101.09%
Growth Percent [17]: 109.97%
Growth Percent [18]: 94.57%
Growth Percent [19]: 101.92%
Growth Percent [20]: 100.31%
Growth Percent [21]: 91.73%
Growth Percent [22]: 100.16%
Growth Percent [23]: 102.91%
Growth Percent [24]: 99.44%
Growth Percent [25]: 89.18%
Growth Percent [26]: 99.38%
Growth Percent [27]: 94.28%
Growth Percent [28]: 100.72%
Growth Percent [29]: 81.95%
Growth Percent [30]: 104.77%
Growth Percent [31]: 92.15%
Growth Percent [32]: 107.71%
Growth Percent [33]: 90.36%
